Data: patent US20250197865A1, “PHARMACEUTICAL COMPOSITION FOR TREATMENT OR PREVENTION OF FIBROTIC DISEASE” (KYUSHU UNIVERSITY, NATIONAL UNIVERSITY CORPORATION, priority 2022, published 2025)

Experiments:
P4HA3 mRNA = test: siRNA treatment of myofibroblasts from carbon tetrachloride-induced fibrotic liver, P4HA3 mRNA by real-time RT-PCR; format: cell-based, mouse; details: myofibroblasts from transiently fibrotic liver; siRNA 3.125 nM; versus si Ctrl; FIG. 9
Experimental: (§1) The mRNA expression levels of P4HA3 etc. in the examples of the present specification were quantified as follows. The concentration of purified RNA was determined using a microspectrophotometer DS-11 (DeNovix), and reverse transcription to cDNA was performed using a High Capacity cDNA Reverse Transcription Kit (Applied Biosystems). Quantification of mRNA was performed according to the protocol of Luna Universal qPCR Master Mix (New England BioLabs), with DNA polymerase activation at 95° C. for 60 seconds, followed by 45 cycles of cDNA denaturation at 95° C. for 15 seconds and extension at 60° C. for 30 seconds. Analysis was performed by the AACt method using GAPDH as an internal standard. Mouse Cyp7al probe was purchased from Applied Biosystems. Primers and probes for mouse α-smooth muscle actin (α-SMA), CD68, 1α1 collagen (Col1α1), 1α2 collagen (Col1α2), 1α3 collagen (Col1α3), 6α1 collagen (Col6α1), 8α1 collagen (Co81α1), GAPDH (glyceraldehyde-3-phosphate dehydrogenase), heat shock protein 47 (Hsp47), prolyl 4-hydroxylase alphal subunit (P4HA1), prolyl 4-hydroxylase alpha2 subunit (P4HA2), and prolyl 4-hydroxylase alpha3 subunit (P4HA3) were purchased from Sigma-Aldrich.
As in Example 3, the effect of suppressing P4HA3 mRNA expression on the mRNA expression of other fibrosis-related factors was examined in cultured myofibroblasts isolated from the liver 4 weeks after the start of carbon tetrachloride administration. The liver was removed from a mouse model of carbon tetrachloride (CCl4)-induced fibrotic livers and divided into small pieces. After that, the liver pieces were washed with washing buffer [25 mM HEPES/[…]/HBSS(-)], and the cell solution containing myofibroblasts was collected by shaking the liver pieces three times for 30 min at 37° C. in . . . digestion buffer [0.1% Collagenase A/15 mM HEPES/HBSS(-)]. After that, blood cell components were removed with Red Blood Cell Lysis Buffer, and the cells were suspended in 10% FBS/1% Penicillin-Streptomycin/DMEM, and then seeded on a culture plate. After 6 hr, the medium was replaced to remove non-adherent cells and debris. After that, the cells were cultured overnight in a CO2 incubator, and non-adherent cells were again removed by washing with PBS, and adherent cells were collected using Accutase. After 20 min of reaction with CD45 antibody labeled with magnetic beads, CD45-positive blood cells were removed by MACS (magnetic cell sorting) using an LS column, and CD45-negative cells were collected as myofibroblasts. After that, the purity of the isolated myofibroblasts was measured using FACS verse, and almost all of the CD45-negative cells after MACS were positive for α-SMA, a myofibroblast marker, and almost no contamination with blood cells was observed. […]

[1] = tested on: mRNA expression of fibrosis-related factors (collagens, elastin) in myofibroblasts; test: siRNA treatment of myofibroblasts from carbon tetrachloride-induced fibrotic liver, fibrosis-related factor mRNA by real-time RT-PCR; format: cell-based, mouse; details: myofibroblasts from transiently fibrotic liver, FIG. 9
Experimental: as §1
As in Example 3, the effect of suppressing P4HA3 mRNA expression on the mRNA expression of other fibrosis-related factors was examined in cultured myofibroblasts isolated from the liver 4 weeks after the start of carbon tetrachloride administration. The liver was removed from a mouse model of carbon tetrachloride (CCl4)-induced fibrotic livers and divided into small pieces. After that, the liver pieces were washed with washing buffer [25 mM HEPES/[…]/HBSS(-)], and the cell solution containing myofibroblasts was collected by shaking the liver pieces three times for 30 min at 37° C. in . . . digestion buffer [0.1% Collagenase A/15 mM HEPES/HBSS(-)]. After that, blood cell components were removed with Red Blood Cell Lysis Buffer, and the cells were suspended in 10% FBS/1% Penicillin-Streptomycin/DMEM, and then seeded on a culture plate. After 6 hr, the medium was replaced to remove non-adherent cells and debris. After that, the cells were cultured overnight in a CO2 incubator, and non-adherent cells were again removed by washing with PBS, and adherent cells were collected using Accutase. After 20 min of reaction with CD45 antibody labeled with magnetic beads, CD45-positive blood cells were removed by MACS (magnetic cell sorting) using an LS column, and CD45-negative cells were collected as myofibroblasts. After that, the purity of the isolated myofibroblasts was measured using FACS verse, and almost all of the CD45-negative cells after MACS were positive for α-SMA, a myofibroblast marker, and almost no contamination with blood cells was observed. Si P4HA3 #1 and si P4HA3 #2, ThermoFisher Scientific catalog numbers 4390771 and 4390771 (Assay ID: s115723 and s115721), were added to the myofibroblast culture at a final concentration of 3.125 nM using Lipofectamine RNAiMAX (Invitrogen). In experiments in which si P4HA3 #2 was not used, such as in Example 3, si P4HA3 #1 was used as “si P4HA3”. For siRNA control experiments, Silencer Select Negative Control no. 1 siRNA (ThermoFisher Scientific, catalog number: 4390843) was used as si Ctrl. The nucleotide sequences of the sense and antisense strands of si P4HA3 #1 are listed in the sequence listing attached hereto as SEQ ID NOs: 1 and 2, respectively. The nucleotide sequences of the sense and antisense strands of si P4HA3 #2 are listed in the sequence listing attached hereto as SEQ ID NOs: 3 and 4, respectively.
Si Hsp47 and si P4HA3 #1 from Example 7 were used as knockdown reagents for Hsp47 and P4HA3, respectively. For si Hsp47, ThermoFisher Scientific catalog number 4390771 (Assay ID: s232335) was used. Separation of cell type fractions from livers collected 4 weeks after the start of carbon tetrachloride administration was performed in the same manner as in Example 6. […]

[2] = tested on: P4HA3 and 1α1 collagen (Col1α1) mRNA expression in LX-2 cells; test: TGFβ treatment of cultured LX-2 hepatic stellate cell line, mRNA by real-time RT-PCR; format: cell-based; details: TGFβ 5 ng/mL for 12 hr, FIG. 26a
Description: Hepatic stellate cells, which are involved in liver fibrosis, are known to be activated by TGFβ (Fabregat, I. et al., FEBS J., 283:2219-2232 (2016)). Therefore, the effects of TGFβ and its specific inhibitor SIS3, as well as an inhibitor of SMAD3 involved in signal transduction of the TGFβ pathway (si SMAD3), on the mRNA expression of fibrosis-related factors in […] were examined. SIS3 (CAS number: 1009104-85-1) was used under catalog number 15945 from Cayman Chemical Company. SIS3 was added to the culture medium at a final concentration of 3 μM and administered. Si SMAD3 was used as a knockdown reagent for SMAD3. si SMAD3 was used under catalog number 4390771 (Assay ID: s69495) from ThermoFisher Scientific. si SMAD3 was administered to cultured cells in the same manner as in Examples 3, 7, and 13. LX-2, a cultured hepatic stellate cell line, was cultured in DMEM supplemented with 2% FBS.
First, the effect of TGFβ on the mRNA expression of P4HA3 or 1α1 collagen (Col1α1) in the cultured LX-2 cells was examined. FIG. 26a is a bar graph showing the mRNA expression level of P4HA3 or 1α1 collagen (Col1α1) in LX-2 cells treated with DMSO or TGFβ (5 ng/ML) for 12 hr. […] The number of samples for each group was 3. […] Error bars indicate standard deviation.

Row | Substance | mRNA expression of P4HA3 (P4HA3 mRNA) | difference in mRNA expression inhibitory effect between si P4HA3 #1 and si P4HA3 #2 for 3α1 collagen and elastin [1] | mRNA expression of 1α1 collagen ([1]; siRNA 3.125 nM, versus si Ctrl) | mRNA expression of other fibrosis-related factors ([1]; siRNA 3.125 nM, versus si Ctrl) | mRNA expression of 1α1 collagen (Col1α1) [2] | mRNA expression of P4HA3 [2]
1 | si P4HA3 #2: siRNA #2 against mouse P4HA3, sense/antisense SEQ ID NOs: 3 and 4; ThermoFisher Scientific catalog 4390771, Assay ID s115721 (sense GCTCATAGCTCTCTACCATTT; antisense ATGGTAGAGAGCTATGAGCGG; listed as DNA, chemistry not given here) | inhibited | no significant difference | inhibited | inhibited |  | 
2 | TGFβ |  |  |  |  | enhanced | enhanced
